Laboratory results: patent publication US20200323888A1, “INHIBITORS” (VESTLANDETS INNOVASJONSSELSKAP AS, priority 2017, published 2020)

Tests used:
Naa10 = target: T1, Naa10 (Homo sapiens, UniProt P41227); experiment: Nt-acetylation inhibitor assay (DTNB), Naa10; format: biochemical; conditions: Naa10; calculated from IC50 with Cheng-Prusoff equation
T1 sequence (P41227 1-235): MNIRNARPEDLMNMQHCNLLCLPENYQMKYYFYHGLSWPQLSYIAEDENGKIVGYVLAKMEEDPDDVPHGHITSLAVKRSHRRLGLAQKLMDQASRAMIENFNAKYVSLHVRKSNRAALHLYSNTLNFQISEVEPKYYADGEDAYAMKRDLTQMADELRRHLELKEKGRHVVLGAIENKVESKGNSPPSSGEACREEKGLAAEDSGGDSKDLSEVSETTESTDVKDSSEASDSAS
Method: (§1) The IC50 values for these compounds were tested as described in Foyn H, et al. (2013) “Design, Synthesis, and Kinetic Characterization of Protein N-Terminal Acetyltransferase Inhibitors”. ACS Chem Biol 8:1121-1127; and Foyn H, et al. (2017) “DTNB-Based quantification of in vitro enzymatic N-terminal acetyltransferase activity”, Methods Mol. Biol. 1574:9-15. Briefly, a colorimetric acetylation assay, 5,5′-dithiobis-(2-nitrobenzoic acid) (DTNB) assay was used to measure the catalytic activity of NATs after incubation with NAT inhibitors. […] Therefore, NTB- was quantified by measuring the absorbance at 412 nm and indirectly measures peptide Nt-acetylation. […] In order to measure CoA production, 2 mM DTNB (dissolved in 100 mM sodium phosphate dibasic pH 6.8 and 10 mM EDTA) was added to the quenched reaction and the absorbance at 412 nm was measured with a spectrophotometer (Epoc). Background absorbance (determined in negative controls) was subtracted from the absorbance determined in each individual reaction. Thiophenolate production was quantified assuming ε=13.7×103 M−1 cm−1. […] A similar Nt-acetylation reaction was performed as previously described and the enzymatic activity was quenched with a final concentration of 1% TFA and analyzed by HPLC (Evjenth R, Van Damme P, Gevaert K, Arnesen T (2013) HPLC-based Quantification of in vitro N-terminal Acetylation. Methods Mol Biol 981:95-102.). […]

NatB = NatB (Homo sapiens, UniProt P61599); experiment: Nt-acetylation inhibitor assay, immunoprecipitated NatB complex, HPLC quantification; format: biochemical; parameters: endogenous in cells; conditions: calculated from IC50 with Cheng-Prusoff equation
Method: as §1

zebrafish embryos = experiment: Phenotype after injection into zebrafish embryos; format: in vivo; conditions: injected into zebrafish embryos; compared with reference inhibitor
From the text: A norleucine (Nle) residue was therefore tried in place of methionine in order to try to circumvent the synthesis problem.

NatA = target: T2, NatA (Homo sapiens, UniProt P41227); experiment: Nt-acetylation inhibitor assay, immunoprecipitated NatA complex, HPLC quantification; format: biochemical
T2 construct: endogenous in cells
T2 sequence (P41227 1-235): T1 sequence (P41227 1-235)
T2 sequence (Q9BXJ9 1-866 partner): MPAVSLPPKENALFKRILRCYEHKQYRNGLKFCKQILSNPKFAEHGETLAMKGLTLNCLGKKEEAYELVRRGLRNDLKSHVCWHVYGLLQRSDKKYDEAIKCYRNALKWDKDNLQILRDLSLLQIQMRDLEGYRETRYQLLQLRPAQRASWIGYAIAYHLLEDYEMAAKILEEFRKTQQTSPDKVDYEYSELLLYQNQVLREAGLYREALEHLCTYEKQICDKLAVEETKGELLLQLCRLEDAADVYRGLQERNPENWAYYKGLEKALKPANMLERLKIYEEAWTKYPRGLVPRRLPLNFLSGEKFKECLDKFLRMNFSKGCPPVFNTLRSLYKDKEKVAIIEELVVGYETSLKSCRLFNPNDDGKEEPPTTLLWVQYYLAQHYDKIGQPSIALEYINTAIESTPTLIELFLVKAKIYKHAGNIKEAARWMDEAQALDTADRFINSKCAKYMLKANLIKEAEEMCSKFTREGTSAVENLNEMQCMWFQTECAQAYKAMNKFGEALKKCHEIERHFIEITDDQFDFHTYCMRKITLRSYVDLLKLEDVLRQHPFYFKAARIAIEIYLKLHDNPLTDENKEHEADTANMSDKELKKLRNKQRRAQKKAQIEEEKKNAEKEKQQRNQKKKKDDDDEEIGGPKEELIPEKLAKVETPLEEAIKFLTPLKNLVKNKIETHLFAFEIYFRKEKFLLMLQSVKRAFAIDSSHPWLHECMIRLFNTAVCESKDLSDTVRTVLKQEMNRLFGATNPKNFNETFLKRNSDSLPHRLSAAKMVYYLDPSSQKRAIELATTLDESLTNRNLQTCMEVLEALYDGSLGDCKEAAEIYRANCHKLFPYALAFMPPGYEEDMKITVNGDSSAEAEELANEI
Method: The IC50 values for these compounds were tested as described in Foyn H, et al. (2013) “Design, Synthesis, and Kinetic Characterization of Protein N-Terminal Acetyltransferase Inhibitors”. ACS Chem Biol 8:1121-1127; and Foyn H, et al. (2017) “DTNB-Based quantification of in vitro enzymatic N-terminal acetyltransferase activity”, Methods Mol. Biol. 1574:9-15. Briefly, a colorimetric acetylation assay, 5,5′-dithiobis-(2-nitrobenzoic acid) (DTNB) assay was used to measure the catalytic activity of NATs after incubation with NAT inhibitors. In the DTNB assay, thiols present in the enzymatic product, CoA, cleaves DTNB and produces 2-nitro-5-thiobenzoate (NTB-), which absorbs light with a wavelength of 412 nm. NTB- forms in a 1:1 molar ratio to the thiol groups present in the sample. Therefore, NTB- was quantified by measuring the absorbance at 412 nm and indirectly measures peptide Nt-acetylation. Recombinant purified NAT enzyme was mixed with different substrate peptides (300 uM, custom-made) and Ac-CoA (300 uM) in acetylation buffer (50 mM Tris/HEPES pH 8.5-7.4, 100 mM NaCl, 10% glycerol and 0.2 mM EDTA) and with inhibitor concentration (0-500 uM). After 30 min-60 min incubation at 37° C., the enzyme activity was quenched with quenching buffer (3.2 M guanidinium-HCl, 100 mM sodium phosphate dibasic pH 6.8). Triplicates were run for all positive samples, while negative controls were duplicated. As a negative control, reactions without enzyme were incubated at 37° C. before the reaction was quenched and added enzyme. In order to measure CoA production, 2 mM DTNB (dissolved in 100 mM sodium phosphate dibasic pH 6.8 and 10 mM EDTA) was added to the quenched reaction and the absorbance at 412 nm was measured with a spectrophotometer (Epoc). Background absorbance (determined in negative controls) was subtracted from the absorbance determined in each individual reaction. Thiophenolate production was quantified assuming ε=13.7×103 M−1 cm−1. […] A similar Nt-acetylation reaction was performed as previously described and the enzymatic activity was quenched with a final concentration of 1% TFA and analyzed by HPLC (Evjenth R, Van Damme P, Gevaert K, Arnesen T (2013) HPLC-based Quantification of in vitro N-terminal Acetylation. Methods Mol Biol 981:95-102.).
In order to ensure selectivity towards NatA, the CoA-Ac-SSNIeP (SEQ ID NO: 4) was tested against other NATs. Using the Cheng-Prusoff equation for competitive inhibitors, the dissociation constant, Ki, was calculated from IC50 values and [S]/Km ratios for all the NATs.

Naa60 = Naa60 (Homo sapiens, UniProt Q9H7X0); experiment: Nt-acetylation inhibitor assay (DTNB), Naa60; format: biochemical; conditions: calculated from IC50 with Cheng-Prusoff equation
Method: as §1

Naa40 = Naa40 (Homo sapiens, UniProt Q86UY6); experiment: Nt-acetylation inhibitor assay (DTNB), Naa40; format: biochemical; conditions: calculated from IC50 with Cheng-Prusoff equation
Method: as §1

Naa50 = target: T3, Naa50 (Homo sapiens, UniProt Q9GZZ1); experiment: Nt-acetylation inhibitor assay (DTNB), Naa50; format: biochemical; conditions: calculated from IC50 with Cheng-Prusoff equation
T3 sequence (Q9GZZ1 1-169): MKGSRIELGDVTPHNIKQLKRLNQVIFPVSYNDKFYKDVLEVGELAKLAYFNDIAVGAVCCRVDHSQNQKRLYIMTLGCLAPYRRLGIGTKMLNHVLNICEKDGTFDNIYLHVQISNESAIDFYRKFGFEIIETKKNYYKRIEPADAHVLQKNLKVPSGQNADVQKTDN
Method: as §1

Naa30 = target: T4, Naa30 (Homo sapiens, UniProt Q147X3); experiment: Nt-acetylation inhibitor assay (DTNB), Naa30; format: biochemical; conditions: calculated from IC50 with Cheng-Prusoff equation
T4 sequence (Q147X3 1-362): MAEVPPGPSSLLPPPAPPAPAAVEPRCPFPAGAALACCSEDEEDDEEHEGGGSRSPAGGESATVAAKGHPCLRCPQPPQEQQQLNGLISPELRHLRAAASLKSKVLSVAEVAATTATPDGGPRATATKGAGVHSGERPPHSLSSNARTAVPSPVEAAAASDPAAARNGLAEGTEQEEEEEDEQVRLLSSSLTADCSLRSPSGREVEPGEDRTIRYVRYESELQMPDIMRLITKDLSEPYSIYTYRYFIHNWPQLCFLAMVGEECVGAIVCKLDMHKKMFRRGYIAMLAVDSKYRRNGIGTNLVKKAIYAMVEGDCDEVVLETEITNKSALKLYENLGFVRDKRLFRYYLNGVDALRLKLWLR
Method: as §1

Sequence of Naa60 (Q9H7X0 whole entry, looked up): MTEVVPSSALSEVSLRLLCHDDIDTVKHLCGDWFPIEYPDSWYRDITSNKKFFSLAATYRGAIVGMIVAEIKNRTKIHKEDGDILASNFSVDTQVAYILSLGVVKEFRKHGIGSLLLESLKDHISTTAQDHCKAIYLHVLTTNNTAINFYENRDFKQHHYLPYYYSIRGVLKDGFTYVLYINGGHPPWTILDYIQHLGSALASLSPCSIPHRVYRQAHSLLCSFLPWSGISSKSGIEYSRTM
Sequence of NatB (P61599 whole entry): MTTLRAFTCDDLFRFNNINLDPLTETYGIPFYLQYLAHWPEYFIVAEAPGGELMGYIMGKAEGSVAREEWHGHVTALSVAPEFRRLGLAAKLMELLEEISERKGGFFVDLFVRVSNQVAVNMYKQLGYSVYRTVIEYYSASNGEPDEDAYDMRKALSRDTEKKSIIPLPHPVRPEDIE
Sequence of NatB (Q14CX7 whole entry partner): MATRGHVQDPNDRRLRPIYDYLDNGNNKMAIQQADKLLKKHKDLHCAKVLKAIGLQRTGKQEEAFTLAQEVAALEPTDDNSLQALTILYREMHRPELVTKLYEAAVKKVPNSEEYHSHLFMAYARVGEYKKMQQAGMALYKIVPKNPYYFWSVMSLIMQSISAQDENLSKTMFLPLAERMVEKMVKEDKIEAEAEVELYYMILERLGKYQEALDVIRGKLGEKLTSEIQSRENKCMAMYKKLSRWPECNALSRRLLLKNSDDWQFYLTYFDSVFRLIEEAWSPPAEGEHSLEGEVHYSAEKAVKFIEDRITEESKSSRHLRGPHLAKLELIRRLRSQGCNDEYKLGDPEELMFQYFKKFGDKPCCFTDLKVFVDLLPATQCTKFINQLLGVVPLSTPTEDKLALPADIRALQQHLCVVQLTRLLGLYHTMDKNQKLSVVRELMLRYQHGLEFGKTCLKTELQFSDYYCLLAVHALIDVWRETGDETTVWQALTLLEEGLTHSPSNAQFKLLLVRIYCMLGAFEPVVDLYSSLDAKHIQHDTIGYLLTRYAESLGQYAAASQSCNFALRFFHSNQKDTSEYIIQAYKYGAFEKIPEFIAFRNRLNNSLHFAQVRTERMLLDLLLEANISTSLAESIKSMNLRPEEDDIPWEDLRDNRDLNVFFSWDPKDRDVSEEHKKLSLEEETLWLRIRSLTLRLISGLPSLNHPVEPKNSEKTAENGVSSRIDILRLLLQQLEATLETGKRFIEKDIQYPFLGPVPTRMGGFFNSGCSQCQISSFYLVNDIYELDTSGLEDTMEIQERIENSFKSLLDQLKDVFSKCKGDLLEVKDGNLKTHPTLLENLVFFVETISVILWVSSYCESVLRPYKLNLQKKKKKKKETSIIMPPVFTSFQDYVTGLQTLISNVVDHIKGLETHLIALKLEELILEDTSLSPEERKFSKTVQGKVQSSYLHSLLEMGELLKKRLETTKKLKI

Q: `CCCC[C@H](NC(=O)[C@H](CO)NC(=O)[C@H](CO)NC(=O)CSCCNC(=O)CCNC(=O)C(O)C(C)(C)COP(=O)(O)OP(=O)(O)OCC1OC(n2cnc3c(N)ncnc32)C(O)C1OP(=O)(O)O)C(=O)N1CCC[C@H]1C(N)=O` (stereo partly shown) [CoA-Ac-SS(Nle)P] was tested. Which Ki (Naa10) did it give?
A: The Ki was 98.9 µM.

Q: And the Ki (NatB)?
A: The Ki was 41.6 ± 51.2 µM.

Q: What about the phenotype in zebrafish (zebrafish embryos) of the same compound?
A: Its phenotype in zebrafish is “same phenotype in zebrafish as SSMP”.

Q: And the Ki (NatA; NatA, calculated from IC50 with Cheng-Prusoff equation)?
A: The Ki was 143 ± 30 nM.

Q: And the IC50 (NatA; inhibitors tested against NatA, all compounds with C-terminal amide)?
A: The IC50 was 1460 ± 290 nM.

Q: And the “more potent towards NatA than all the other NATs tested” value (NatA; selectivity from Ki values of Table 2)?
A: Its value is “at least 100 fold”.

Q: And the Ki (Naa60)?
A: Its Ki is 3.1 ± 0.8 µM.

Q: What about the Ki (Naa40) of the same compound?
A: Its Ki is 41.9 ± 6.4 µM.

Q: And the Ki (Naa50)?
A: Its Ki is 17.7 ± 7.4 µM.

Q: What about the Ki (Naa30) of the same compound?
A: The Ki was 132 µM.
